Where two headings read alike, the source gives them in different places.
Assays:
[1] = tested on: Burkholderia thailandensis; type: cell-based; conditions: preliminary screening, score 0-3
Corynebacterium xerosis [2] = test: Antibacterial preliminary screening CX; type: cell-based; conditions: score 0-3; also: key: 0 represents no inhibition; 3 is comparable to commercial antibiotic control
Escherichia coli [3] = test: Antibacterial preliminary screening EC; type: cell-based; conditions: score 0-3; also: key: 0 represents no inhibition; 3 is comparable to commercial antibiotic control
AtIspD = AtIspD (Arabidopsis thaliana, UniProt P69834); test: University of Hamburg photometric enzymatic inhibition assay AtIspD; type: biochemical; conditions: read-out: AtIspD IC50
Description: (§1) Compounds were subjected to a photometric enzymatic assay to test for inhibition of the plant enzymes Arabidopsis thaliana IspD and IspF, and IspE from Lycopersicon esculentum.
The procedure for AtIspD enzymatic inhibition assay, was performed by making an assay mixture of 100 mM Tris hydrochloride at pH 8.0 with 10 mM MgCl2, 1 mM dithiothreitol, 2.5 mM potassium phosphoenol pyruvate, 2.1 mM CTP, 2 mM ATP, 1 mM of (2R,3S)-2,3-dihydroxy-4-oxopentyl phosphate, 460 μM NADH, 1.1% (v/v) DMSO, 0.4 U IspE, 1 U lactate dehydrogenase, 1 U pyruvate kinase and 2.4 mU IspD in 180 μL of solution. Solutions were incubated at 27° C. and monitored photometrically. By preparing the assay mixture with a large excess of IspE compared to IspD, any inhibition of IspE by the test inhibitor would be insignificant compared to IspD and therefore the rate of the reaction is determined by IspD activity.

Pseudomonas aeruginosa [4] = test: Antibacterial preliminary screening PA; type: cell-based; conditions: score 0-3; also: key: 0 represents no inhibition; 3 is comparable to commercial antibiotic control
Klebsiella pneumonia [5] = test: Antibacterial preliminary screening KP; type: cell-based; conditions: score 0-3; also: key: 0 represents no inhibition; 3 is comparable to commercial antibiotic control
Micrococcus luteus [6] = test: Antibacterial preliminary screening ML; type: cell-based; conditions: score 0-3; also: key: 0 represents no inhibition; 3 is comparable to commercial antibiotic control
[7] = target: Lycopersicon esculentum IspE (LeIspE) (Solanum lycopersicum, UniProt P93841); test: Thermal shift assay against LeIspE; type: binding
Bacillus cereus [8] = test: Antibacterial preliminary screening BC; type: cell-based; conditions: score 0-3; also: key: 0 represents no inhibition; 3 is comparable to commercial antibiotic control
lettuce seeds = test: Lettuce leaf assay; type: in vivo; design: key: 0 (no effect); 5(complete inhibition or bleaching); conditions: ranking 0-5
Excerpt: The lettuce leaf assay is a qualitative assay used to determine the relative effectiveness of the test compounds at inhibition of germination of seeds and root development as well as causing bleaching of leaves. Isoprenoid synthesis is vital in plants as isoprene-product gibberellins are a class of growth hormones in plants responsible for stimulating cell elongation and division. In addition, some carotenoids are involved in photosynthesis as components of the electron transport chain. MEP pathway inhibitors have the potential to prevent synthesis of these necessary cellular components and growth hormones resulting in inhibition of germination and root development as well as causing chlorosis, or bleaching in the leaves. The lettuce leaf assay, explores the effects of compounds as potential MEP pathway inhibitors by evaluating the effect on bleaching, root development, and germination of lettuce seeds, which all rely on isoprenoid biosynthesis. […] The assay is a qualitative assay and the effects are given rankings from 0 (no effect) to 5 (complete inhibition or bleaching). In this assay, compounds are dissolved in a volatile organic solvent and applied to filter paper in a petri dish. The solvent is allowed to evaporate and lettuce seeds are applied followed by the addition of 5 mL of water to obtain the necessary concentrations. Seeds are allowed to grow and they are observed on day 3 and day 4 for evaluation.

Mycobacterium smegmatis [9] = test: Antibacterial preliminary screening MS; type: cell-based; conditions: score 0-3; also: key: 0 represents no inhibition; 3 is comparable to commercial antibiotic control
LeIspE = LeIspE (Solanum lycopersicum, UniProt P93841); test: University of Hamburg photometric enzymatic inhibition assay LeIspE; type: biochemical, Lycopersicon esculentum; conditions: read-out: LeIspE IC50
Description: as §1
The IspE assay conditions were very similar to the IspD assay in which the assay mixture was composed of 100 mM Tris hydrochloride at pH 8.0 with 10 mM MgCl2, 1 mM dithiothreitol, 2.5 mM potassium phosphoenol pyruvate, 2 mM ATP, 1 mM of 4-Diphosphocytidyl-2-C-methylerythritol, 460 μM NADH, 1.1% (v/v) DMSO, 2.4 mU IspE, 1 U lactate dehydrogenase, 1 U pyruvate kinase in 180 μL of solution. Solutions were incubated at 27° C. and monitored photometrically.

[10] = tested on: Corynebacterium pseudodiphtheriae; test: Antibacterial preliminary screening CP; type: cell-based; conditions: score 0-3;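 also: 0 is no inhibition and 3 matches the commercial antibiotic control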
[11] = target: T1, Mycobacterium tuberculosis IspD (MtIspD) (Mycobacterium tuberculosis, UniProt P9WKG9); test: Thermal shift assay against MtIspD; type: binding
T1 sequence (P9WKG9 1-231): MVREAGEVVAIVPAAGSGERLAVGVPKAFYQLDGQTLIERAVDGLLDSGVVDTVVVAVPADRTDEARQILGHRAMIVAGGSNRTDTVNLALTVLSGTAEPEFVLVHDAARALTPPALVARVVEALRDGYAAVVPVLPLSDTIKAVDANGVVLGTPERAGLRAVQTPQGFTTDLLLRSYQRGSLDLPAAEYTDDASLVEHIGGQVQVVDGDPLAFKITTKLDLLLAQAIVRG

AtIspF = AtIspF (Arabidopsis thaliana, UniProt Q9CAK8); test: University of Hamburg photometric enzymatic inhibition assay AtIspF; type: biochemical; conditions: read-out: AtIspF IC50
Description: as §1
The IspF assay mixture conditions were as follows: 100 mM Tris hydrochloride at pH 8.0 with 10 mM MgCl2, 1 mM dithiothreitol, 2.5 mM potassium phosphoenol pyruvate, 2 mM ATP, 1 mM of 4-diphosphocytidyl-2C methylerythritol 2-phosphate, 460 μM NADH, 1.1% (v/v) DMSO, 0.5 U CMP kinase, 2.4 mU IspF, 1 U lactate dehydrogenase, 1 U pyruvate kinase in 180 μL of solution. Solutions were incubated at 27° C. and monitored photometrically.

Klebsiella pneumonia [12] = test: Antibacterial assay zone of inhibition Kp; type: cell-based
Escherichia coli [13] = test: Antibacterial assay zone of inhibition Ec; type: cell-based
[14] = tested on: Burkholderia thailandensis; type: cell-based
Corynebacterium xerosis [15] = test: Antibacterial assay zone of inhibition Cx; type: cell-based
Mycobacterium smegmatis [16] = test: Antibacterial assay zone of inhibition Ms; type: cell-based
Pseudomonas aeruginosa [17] = test: Antibacterial assay zone of inhibition Pa; type: cell-based
Micrococcus luteus [18] = test: Antibacterial assay zone of inhibition Ml; type: cell-based
[19] = tested on: Corynebacterium pseudodiphtheriae; test: Antibacterial assay zone of inhibition Cp; type: cell-based
Bacillus cereus [20] = test: Antibacterial assay zone of inhibition Bc; type: cell-based

Chain of AtIspF (Q9CAK8 53-231): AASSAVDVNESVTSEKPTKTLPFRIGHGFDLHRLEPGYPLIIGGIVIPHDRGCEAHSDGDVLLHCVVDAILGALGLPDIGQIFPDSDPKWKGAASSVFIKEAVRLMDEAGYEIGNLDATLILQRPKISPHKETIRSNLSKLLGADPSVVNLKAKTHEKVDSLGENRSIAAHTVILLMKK
Chain of AtIspD (P69834 62-302): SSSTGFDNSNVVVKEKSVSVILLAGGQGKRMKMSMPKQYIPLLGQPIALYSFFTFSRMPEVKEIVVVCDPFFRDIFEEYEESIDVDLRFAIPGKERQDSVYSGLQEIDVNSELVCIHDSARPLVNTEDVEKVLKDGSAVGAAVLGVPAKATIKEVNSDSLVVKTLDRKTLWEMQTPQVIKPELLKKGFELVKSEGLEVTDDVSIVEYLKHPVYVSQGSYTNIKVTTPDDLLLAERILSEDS
Chain of Lycopersicon esculentum IspE (LeIspE) (P93841 89-401): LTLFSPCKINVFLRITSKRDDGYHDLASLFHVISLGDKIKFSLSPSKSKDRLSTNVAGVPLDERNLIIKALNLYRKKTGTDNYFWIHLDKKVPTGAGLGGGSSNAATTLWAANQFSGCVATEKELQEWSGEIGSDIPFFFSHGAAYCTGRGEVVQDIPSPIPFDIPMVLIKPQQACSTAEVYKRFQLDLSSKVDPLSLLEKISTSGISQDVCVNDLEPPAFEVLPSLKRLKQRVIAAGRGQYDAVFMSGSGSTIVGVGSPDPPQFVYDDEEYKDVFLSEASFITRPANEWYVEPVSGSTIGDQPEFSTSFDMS
Chain of LeIspE (P93841 89-401): as above

COc1ccc(-c2nnc(-c3cc4ccccc4[nH]3)o2)cc1 [HGN-223, 2-(1H-indol-2-yl)-5-(4-methoxyphenyl)-1,3,4-oxadiazole]
BT score [1]: 0 | CX score (Corynebacterium xerosis [2]): 0 | EC score (Escherichia coli [3]): 0 | IC50 (AtIspD): 209 ± 29 µM | PA score (Pseudomonas aeruginosa [4]): 0 | KP score (Klebsiella pneumonia [5]): 0 | ML score (Micrococcus luteus [6]): 0 | LeIspE melting point change [7]: −0.25 °C | LeIspE melting temp [7]: 49.25 °C | BC score (Bacillus cereus [8]): 0 | Bleaching (lettuce seeds; 0.5 mM): 0 | Germination (lettuce seeds; 0.5 mM): 1 | Root Dev. (lettuce seeds; 0.5 mM): 0 | Bleaching (lettuce seeds; 1.0 mM): 0 | Germination (lettuce seeds; 1.0 mM): 4 | Root Dev. (lettuce seeds; 1.0 mM): 0 | MS score (Mycobacterium smegmatis [9]): 0 | IC50 (LeIspE): 126 ± 12 µM | CP score [10]: 0 | MtIspD melting point change [11]: 0.0 °C | MtIspD melting temp [11]: 48.0 °C | IC50 (AtIspF): > 1000 µM

c1ccc(-c2cccc(-c3nnc(-c4cc5ccccc5[nH]4)o3)c2)cc1 [HGN-287, 2-([1,1′-biphenyl]-3-yl)-5-(1H-indol-2-yl)-1,3,4-oxadiazole]
BT score [1]: 0 | CX score (Corynebacterium xerosis [2]): 0 | EC score (Escherichia coli [3]): 0 | IC50 (AtIspD): 501 ± 82 µM | PA score (Pseudomonas aeruginosa [4]): 0 | KP score (Klebsiella pneumonia [5]): 0 | ML score (Micrococcus luteus [6]): 0 | LeIspE melting point change [7]: −0.25 °C | LeIspE melting temp [7]: 49.25 °C | BC score (Bacillus cereus [8]): 0 | Bleaching (lettuce seeds; 0.15 mM): 0 | Germination (lettuce seeds; 0.15 mM): 0 | Root Dev. (lettuce seeds; 0.15 mM): 0 | Bleaching (lettuce seeds; 0.3 mM): 0 | Germination (lettuce seeds; 0.3 mM): 0 | Root Dev. (lettuce seeds; 0.3 mM): 0 | MS score (Mycobacterium smegmatis [9]): 0 | IC50 (LeIspE): > 1000 µM | CP score [10]: 0 | MtIspD melting point change [11]: 0.5 °C | MtIspD melting temp [11]: 48.5 °C | IC50 (AtIspF): > 1000 µM

c1ccc(-c2ccc(-c3nnc(-c4cc5ccccc5[nH]4)o3)cc2)cc1 [HGN-288, 2-([1,1′-biphenyl]-4-yl)-5-(1H-indol-2-yl)-1,3,4-oxadiazole]
BT score [1]: 0 | CX score (Corynebacterium xerosis [2]): 0 | EC score (Escherichia coli [3]): 0 | IC50 (AtIspD): 255 ± 35 µM | PA score (Pseudomonas aeruginosa [4]): 0 | KP score (Klebsiella pneumonia [5]): 0 | ML score (Micrococcus luteus [6]): 0 | LeIspE melting point change [7]: −1.50 °C | LeIspE melting temp [7]: 48.00 °C | BC score (Bacillus cereus [8]): 0 | Bleaching (lettuce seeds; 0.1 mM): 0 | Germination (lettuce seeds; 0.1 mM): 0 | Root Dev. (lettuce seeds; 0.1 mM): 0 | Bleaching (lettuce seeds; 0.2 mM): 0 | Germination (lettuce seeds; 0.2 mM): 0 | Root Dev. (lettuce seeds; 0.2 mM): 0 | MS score (Mycobacterium smegmatis [9]): 0 | IC50 (LeIspE): > 1000 µM | CP score [10]: 0 | MtIspD melting point change [11]: 1.0 °C | MtIspD melting temp [11]: 49.0 °C | IC50 (AtIspF): > 1000 µM

Clc1ccc(OCc2nnc(-c3cc4ccccc4[nH]3)o2)c(Cl)c1 [HGN-810]
Antibacterial Kp zone of inhibition (Klebsiella pneumonia [12]; 0.1 mM): 0 millimeters | Antibacterial Kp zone of inhibition (Klebsiella pneumonia [12]; 0.5 mM): 0 millimeters | Antibacterial Kp zone of inhibition (Klebsiella pneumonia [12]; 1 mM): 0 millimeters | Antibacterial Ec zone of inhibition (Escherichia coli [13]; 0.1 mM): 0 millimeters | Antibacterial Ec zone of inhibition (Escherichia coli [13]; 0.5 mM): 0 millimeters | Antibacterial Ec zone of inhibition (Escherichia coli [13]; 1 mM): 0 millimeters | Antibacterial Bt zone of inhibition ([14]; 0.1 mM): 0 11.5 17 millimeters | Antibacterial Bt zone of inhibition ([14]; 0.5 mM): 0 11.5 17 millimeters | Antibacterial Bt zone of inhibition ([14]; 1 mM): 0 11.5 17 millimeters | Antibacterial Cx zone of inhibition (Corynebacterium xerosis [15]; 0.1 mM): 0 millimeters | Antibacterial Cx zone of inhibition (Corynebacterium xerosis [15]; 0.5 mM): 0 millimeters | Antibacterial Cx zone of inhibition (Corynebacterium xerosis [15]; 1 mM): 0 millimeters | Antibacterial Ms zone of inhibition (Mycobacterium smegmatis [16]; 0.1 mM): 0 millimeters | Antibacterial Ms zone of inhibition (Mycobacterium smegmatis [16]; 0.5 mM): 0 millimeters | Antibacterial Ms zone of inhibition (Mycobacterium smegmatis [16]; 1 mM): 0 millimeters | Antibacterial Pa zone of inhibition (Pseudomonas aeruginosa [17]; 0.1 mM): 0 millimeters | Antibacterial Pa zone of inhibition (Pseudomonas aeruginosa [17]; 0.5 mM): 0 millimeters | Antibacterial Pa zone of inhibition (Pseudomonas aeruginosa [17]; 1 mM): 0 millimeters | Antibacterial Ml zone of inhibition (Micrococcus luteus [18]; 0.1 mM): 0 millimeters | Antibacterial Ml zone of inhibition (Micrococcus luteus [18]; 0.5 mM): 0 millimeters | Antibacterial Ml zone of inhibition (Micrococcus luteus [18]; 1 mM): 0 millimeters | Antibacterial Cp zone of inhibition ([19]; 0.1 mM): 0 millimeters | Antibacterial Cp zone of inhibition ([19]; 0.5 mM): 0 millimeters | Antibacterial Cp zone of inhibition ([19]; 1 mM): 0 millimeters | Antibacterial Bc zone of inhibition (Bacillus cereus [20]; 0.1 mM): 0 millimeters | Antibacterial Bc zone of inhibition (Bacillus cereus [20]; 0.5 mM): 11 millimeters | Antibacterial Bc zone of inhibition (Bacillus cereus [20]; 1 mM): 16.5 millimeters

c1ccc(OCc2nnc(-c3cc4ccccc4[nH]3)o2)cc1 [HGN-811]
Antibacterial Kp zone of inhibition (Klebsiella pneumonia [12]; 0.1 mM): 0 millimeters | Antibacterial Kp zone of inhibition (Klebsiella pneumonia [12]; 0.5 mM): 0 millimeters | Antibacterial Kp zone of inhibition (Klebsiella pneumonia [12]; 1 mM): 0 millimeters | Antibacterial Ec zone of inhibition (Escherichia coli [13]; 0.1 mM): 0 millimeters | Antibacterial Ec zone of inhibition (Escherichia coli [13]; 0.5 mM): 0 millimeters | Antibacterial Ec zone of inhibition (Escherichia coli [13]; 1 mM): 0 millimeters | Antibacterial Bt zone of inhibition [14]: 0 8 12 millimeters | Antibacterial Cx zone of inhibition (Corynebacterium xerosis [15]; 0.1 mM): 0 millimeters | Antibacterial Cx zone of inhibition (Corynebacterium xerosis [15]; 0.5 mM): 0 millimeters | Antibacterial Cx zone of inhibition (Corynebacterium xerosis [15]; 1 mM): 0 millimeters | Antibacterial Ms zone of inhibition (Mycobacterium smegmatis [16]; 0.1 mM): 0 millimeters | Antibacterial Ms zone of inhibition (Mycobacterium smegmatis [16]; 0.5 mM): 0 millimeters | Antibacterial Ms zone of inhibition (Mycobacterium smegmatis [16]; 1 mM): 0 millimeters | Antibacterial Pa zone of inhibition (Pseudomonas aeruginosa [17]; 0.1 mM): 0 millimeters | Antibacterial Pa zone of inhibition (Pseudomonas aeruginosa [17]; 0.5 mM): 0 millimeters | Antibacterial Pa zone of inhibition (Pseudomonas aeruginosa [17]; 1 mM): 0 millimeters | Antibacterial Ml zone of inhibition (Micrococcus luteus [18]; 0.1 mM): 0 millimeters | Antibacterial Ml zone of inhibition (Micrococcus luteus [18]; 0.5 mM): 0 millimeters | Antibacterial Ml zone of inhibition (Micrococcus luteus [18]; 1 mM): 0 millimeters | Antibacterial Cp zone of inhibition ([19]; 0.1 mM): 0 millimeters | Antibacterial Cp zone of inhibition ([19]; 0.5 mM): 0 millimeters | Antibacterial Cp zone of inhibition ([19]; 1 mM): 0 millimeters | Antibacterial Bc zone of inhibition (Bacillus cereus [20]; 0.1 mM): 0 millimeters | Antibacterial Bc zone of inhibition (Bacillus cereus [20]; 0.5 mM): 12.5 millimeters | Antibacterial Bc zone of inhibition (Bacillus cereus [20]; 1 mM): 16 millimeters

— US11026426B2, “Oxadiazole and phenol derivatives as antibacterial and/or herbicidal agents” (NORTHERN ILLINOIS RESEARCH FOUNDATION, priority 2017, dated 2021)
